Measured values from publication PMC7245553 (Cell chemical biology, 2020).
≈ marks a conversion by molar mass, not a printed value. Where “and” joins values, the source holds several entries; their conditions need not be identical. Identical values can stand only once. Like-named read-outs stand apart in the source and are kept apart here.

Legend:
in vitro = assay type: cell-based; details: African green monkey
M. tuberculosis H37Rv [1] = test: M. tuberculosis MIC assay; details: for MIC H37Rv: 90% inhibition of bacterial growth, Alamar blue
[2] = Mouse liver microsomal stability; assay type: in vitro ADME; details: pH 7.4
[3] = Mouse pharmacokinetic profiling; assay type: in vivo, CD-1 mice
physchem = assay type: physicochemical; details: pH 7.4, aqueous buffer, kinetic from dmso stock
[4] = mouse, microsomes; cited from earlier work
M. tuberculosis H37Rv [5] = details: cited from earlier work
Vero cells = details: cited from earlier work
M. tuberculosis [6] = test: M. tuberculosis killing kinetics; assay type: cell-based, Mycobacterium tuberculosis; details: for reduction in CFUs, killing kinetics: 103 MIC of compound, over 7 days, followed by re-growth; for cidality in vitro: H37Rv strain; for killing in combination with INH: each at 10× MIC
M. tuberculosis H37Rv [7] = details: acute model, 100 mg/kg qd po, alone; ref Kumar et al., 2018; cited from earlier work
[8] = pH 7.4; cited from earlier work
M. tuberculosis H37Rv [9] = test: Mouse model of acute M. tuberculosis infection; assay type: in vivo, BALB/c mice; details: for increase of CFU in the lungs versus start of treatment: 100 mg/kg po qd; for bacterial load in the spleen: po qd
[10] = assay type: in vitro ADME; details: human, 5 µM
[11] = tested on: M. tuberculosis mc^26206 within J774.1 cells; test: microbe, parasite or virus in culture; assay type: cell-based; details: Mycobacterium tuberculosis, J774.1, read-out: IC50, intracellular growth of M. tuberculosis mc^26206 within J774.1 cells
[12] = tested on: CYP1A2, CYP2C9, CYP2C19, CYP2D6, CYP3A4 (one value for the profile of isoforms; except 2C19 for compound 10); test: in vitro; assay type: in vitro ADME; details: human, pH 7.4
[13] = assay type: in vitro ADME; details: mouse, 5 µM
M. tuberculosis [14] = test: M. tuberculosis MBC assay; assay type: cell-based; details: Mycobacterium tuberculosis
Enterococcus faecium = test: MIC versus Enterococcus faecium; assay type: cell-based
Enterobacter cloacae = test: MIC versus Enterobacter cloacae; assay type: cell-based
Klebsiella pneumoniae = test: MIC versus Klebsiella pneumoniae; assay type: cell-based
M. tuberculosis [15] = test: Mouse model of chronic M. tuberculosis infection; assay type: in vivo, BALB/c mice; details: for reduction in CFUs, controls: 10 or 20 mg/kg qd po
[16] = Dog liver microsomal stability; assay type: in vitro ADME; details: pH 7.4
Staphylococcus aureus = test: MIC versus Staphylococcus aureus; assay type: cell-based
[17] = tested on: mycolic acid biosynthesis within M. tuberculosis H37Rv; test: Mycolic acid biosynthesis analysis; assay type: cell-based, Mycobacterium tuberculosis
hERG = hERG (Homo sapiens, UniProt Q12809); test: hERG inhibition; assay type: biochemical
Pseudomonas aeruginosa = test: MIC versus Pseudomonas aeruginosa; assay type: cell-based
KasA = KasA (Mycobacterium tuberculosis, UniProt P9WQD9); test: Microscale thermophoresis binding assay
cytochrome P450 2C19 = cytochrome P450 2C19 (Homo sapiens, UniProt P33261); test: Human cytochrome P450 2C19 inhibition; assay type: in vitro ADME
[18] = female, CD-1, mouse, in vivo, po

Chain of KasA (P9WQD9 whole entry): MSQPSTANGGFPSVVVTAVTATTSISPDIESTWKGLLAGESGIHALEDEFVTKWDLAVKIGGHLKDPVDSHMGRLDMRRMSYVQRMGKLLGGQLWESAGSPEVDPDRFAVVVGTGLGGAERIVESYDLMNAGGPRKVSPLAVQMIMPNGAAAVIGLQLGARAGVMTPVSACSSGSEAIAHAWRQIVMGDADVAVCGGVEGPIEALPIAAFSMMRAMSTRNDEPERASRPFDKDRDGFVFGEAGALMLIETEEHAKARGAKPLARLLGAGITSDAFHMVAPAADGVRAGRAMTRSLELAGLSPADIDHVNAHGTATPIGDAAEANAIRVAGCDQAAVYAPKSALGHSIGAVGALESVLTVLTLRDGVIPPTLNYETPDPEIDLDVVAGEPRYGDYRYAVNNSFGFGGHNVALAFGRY
Chain of cytochrome P450 2C19 (P33261 whole entry): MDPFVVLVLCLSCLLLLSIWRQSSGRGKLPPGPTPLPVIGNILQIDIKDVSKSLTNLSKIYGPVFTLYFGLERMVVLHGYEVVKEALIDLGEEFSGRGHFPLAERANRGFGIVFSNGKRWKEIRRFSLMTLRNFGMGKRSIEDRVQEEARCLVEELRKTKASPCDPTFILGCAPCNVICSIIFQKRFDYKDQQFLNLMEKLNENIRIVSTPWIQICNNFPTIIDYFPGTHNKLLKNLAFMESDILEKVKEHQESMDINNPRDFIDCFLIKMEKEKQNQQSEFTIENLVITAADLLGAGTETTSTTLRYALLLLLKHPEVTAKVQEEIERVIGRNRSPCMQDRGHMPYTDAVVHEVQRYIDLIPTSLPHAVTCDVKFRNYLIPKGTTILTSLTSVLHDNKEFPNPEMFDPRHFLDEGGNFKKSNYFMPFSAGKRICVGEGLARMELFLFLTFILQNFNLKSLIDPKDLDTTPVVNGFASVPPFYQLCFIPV
Chain of hERG (Q12809 whole entry): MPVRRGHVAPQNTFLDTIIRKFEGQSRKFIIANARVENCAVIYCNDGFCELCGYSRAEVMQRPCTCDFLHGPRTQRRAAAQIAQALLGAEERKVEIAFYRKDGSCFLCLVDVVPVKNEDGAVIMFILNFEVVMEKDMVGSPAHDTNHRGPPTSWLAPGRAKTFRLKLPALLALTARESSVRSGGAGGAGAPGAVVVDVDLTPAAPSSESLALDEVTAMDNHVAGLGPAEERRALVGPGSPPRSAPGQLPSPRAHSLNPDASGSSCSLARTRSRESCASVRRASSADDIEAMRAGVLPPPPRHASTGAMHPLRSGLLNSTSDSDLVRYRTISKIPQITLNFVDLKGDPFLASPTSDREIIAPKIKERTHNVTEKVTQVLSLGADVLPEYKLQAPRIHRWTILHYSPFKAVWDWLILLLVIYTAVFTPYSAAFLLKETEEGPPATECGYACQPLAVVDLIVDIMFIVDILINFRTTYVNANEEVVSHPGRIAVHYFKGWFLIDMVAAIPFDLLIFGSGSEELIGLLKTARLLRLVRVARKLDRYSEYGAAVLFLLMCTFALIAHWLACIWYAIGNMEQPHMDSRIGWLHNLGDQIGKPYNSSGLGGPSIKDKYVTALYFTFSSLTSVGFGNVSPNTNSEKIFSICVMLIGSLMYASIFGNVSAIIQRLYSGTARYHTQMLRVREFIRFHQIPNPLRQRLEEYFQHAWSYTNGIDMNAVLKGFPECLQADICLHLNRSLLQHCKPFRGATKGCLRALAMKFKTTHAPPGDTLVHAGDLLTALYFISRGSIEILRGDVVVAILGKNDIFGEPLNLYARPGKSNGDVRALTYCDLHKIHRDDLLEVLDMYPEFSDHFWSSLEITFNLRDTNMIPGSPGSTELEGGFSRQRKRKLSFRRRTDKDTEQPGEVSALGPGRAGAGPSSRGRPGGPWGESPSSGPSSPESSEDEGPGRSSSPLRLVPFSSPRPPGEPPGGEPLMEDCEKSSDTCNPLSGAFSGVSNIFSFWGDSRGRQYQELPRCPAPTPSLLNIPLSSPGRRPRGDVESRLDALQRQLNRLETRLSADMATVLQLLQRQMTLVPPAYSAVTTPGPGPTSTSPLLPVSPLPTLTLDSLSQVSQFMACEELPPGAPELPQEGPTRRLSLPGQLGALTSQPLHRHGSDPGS

CCCCS(=O)(=O)Nc1ccc2[nH]c(CN)c(C)c2c1 [Compound 11, N-(2-(aminomethyl)-3-methyl-1H-indol-5-yl)butane-1-sulfonamide]
CC50 (in vitro): 170 µM
MIC H37Rv (M. tuberculosis H37Rv [1]): 100 µM (≈ 29.5 µg/mL)

CCCCCS(=O)(=O)Nc1ccc2[nH]nc(C)c2c1 [Compound 13, N-(3-methyl-1H-indazol-5-yl)pentane-1-sulfonamide]
CC50 (in vitro): 89 µM
half-life ([2]; microsomes): 3.26 min
Kp at 5 h ([3]; female, CD-1, mouse, in vivo): 1.3
t > MIC ([3]; female, CD-1, mouse, in vivo): 5 h
AUC(0-t) [3, 18]: 13900 ng·h/mL
MIC H37Rv (M. tuberculosis H37Rv [1]): 0.12 µM (≈ 0.0338 µg/mL)
solubility kinetic at 4 h (physchem): 476 µM (≈ 134 µg/mL)

O=S(=O)(CCCCF)Nc1ccc2[nH]nc(Cl)c2c1 [Compound 18, N-(3-chloro-1H-indazol-5-yl)-4-fluorobutane-1-sulfonamide]
CC50 (in vitro): 160 µM
MIC H37Rv (M. tuberculosis H37Rv [1]): 0.20 µM (≈ 0.0612 µg/mL)

CCCCS(=O)(=O)Nc1ccc2cnn(C)c2c1 [DG167]
MLM t1/2 [4]: 10.1 min
MIC H37Rv (M. tuberculosis H37Rv [5]; footnote a, ref Kumar et al. (2018)): 0.39 µM (≈ 0.104 µg/mL)
MIC against the wild-type H37Rv strain (M. tuberculosis H37Rv [5]; ref Kumar et al., 2018): 390 µM (≈ 104 µg/mL)
CC50 (Vero cells): 23 µM
AUC0–5h/MIC ([3]; mouse, in vivo, po): 20
reduction in CFUs, killing kinetics (M. tuberculosis [6]): > 2 log10
bacterial load of mouse lungs versus start of treatment (M. tuberculosis H37Rv [7]): did not reduce the bacterial load of mouse lungs
Kinetic Aqueous Solubility [8]: 324 µM
increase of CFU in the lungs versus start of treatment (M. tuberculosis H37Rv [9]): about 1 log10 CFU

CCCCS(=O)(=O)Nc1ccc2[nH]c(C(=O)OCC)c(C)c2c1 [Compound 5, ethyl 5-(butylsulfonamido)-3-methyl-1H-indole-2-carboxylate]
CC50 (in vitro): > 150 µM
half-life ([2]; microsomes): < 0.5 min
MIC H37Rv (M. tuberculosis H37Rv [1]): 0.20 µM (≈ 0.0677 µg/mL)
solubility kinetic at 4 h (physchem): 0.895 µM (≈ 0.303 µg/mL)

CCCCS(=O)(=O)Nc1ccc2[nH]c(C#N)c(C)c2c1 [Compound 9, N-(2-cyano-3-methyl-1H-indol-5-yl)butane-1-sulfonamide]
plasma stability at 5 h [10]: ≥ 80%
IC50 [11]: 0.19 µM
CC50 (in vitro): 170 µM
IC50 at 20 min [12]: > 1 µM
half-life ([2]; mouse liver microsomes): 6.51 min
reduction in CFUs, killing kinetics (M. tuberculosis [6]): > 2 log10
cidality in vitro (M. tuberculosis [6]): in vitro bactericidal
plasma stability at 5 h [13]: ≥ 80%
MIC H37Rv (M. tuberculosis H37Rv [1]): 0.78 µM (≈ 0.227 µg/mL)
MIC (M. tuberculosis H37Rv [1]; H37Rv): 780 µM (≈ 227 µg/mL)
MBC (M. tuberculosis [14]): 1.4 to 2.7 µM (≈ 0.408 to 0.787 µg/mL)
increase of CFU in the lungs versus start of treatment (M. tuberculosis H37Rv [9]): about 1 log10 CFU
bacterial load in the spleen (M. tuberculosis H37Rv [9]): did not reduce the bacterial load in the spleen

Cc1n[nH]c2ccc(NS(=O)(=O)CCCCF)cc12 [JSF-3285, 4-fluoro-N-(3-methyl-1H-indazol-5-yl)butane-1-sulfonamide]
MIC (Enterococcus faecium): > 50 µg/mL
MIC (Enterobacter cloacae): > 50 µg/mL
IC50 [11]: 0.046 µM
MIC (Klebsiella pneumoniae): > 50 µg/mL
improvement of efficacy of INH or RIF regimen on addition (M. tuberculosis [15]; 200 mg/kg added to 10 mg/kg INH or RIF): ~ 1 log10
additional reduction of bacterial burden compared to INH- and RIF-only treatment (M. tuberculosis [15]; 200 mg/kg alone): ~ 1 log10 CFUs
reduction of bacterial burden in the mouse lungs versus start of treatment (M. tuberculosis [15]; 200 mg/kg qd po alone or with 10 mg/kg INH or RIF, 4 weeks): more than 2 log10 CFUs
reduction in CFUs in infected lungs (M. tuberculosis [15]; 200–5 mg/kg qd and 20 mg/kg qd or bid, 4 weeks of treatment): 1.5–2.0 log10
half-life ([16]; microsomes): 48.2 min
intrinsic clearance (Clint) in dog liver microsomes [16]: 124 µL/min/mg
MIC (Staphylococcus aureus): > 50 µg/mL
mycolic acid biosynthesis [17]: inhibited mycolic acid biosynthesis
CC50 (in vitro): 170 µM
half-life ([2]; mouse liver microsomes): 28.4 min
increase in mouse plasma exposure (AUC0–5h) over DG167 ([3]; female, CD-1, mouse, in vivo): 30 fold
t > MIC ([3]; female, CD-1, mouse, in vivo): 5 h
AUC(0-t) [3, 18]: 59300 ng·h/mL
Kp at 5 h ([3]; female, CD-1, mouse, lung and plasma, oral): 0.75
cidality in vitro (M. tuberculosis [6]): cidal to the H37Rv strain
killing in combination with INH (M. tuberculosis [6]): culture sterilization
IC50 (hERG): > 50 µM
MIC (Pseudomonas aeruginosa): > 50 µg/mL
MIC H37Rv (M. tuberculosis H37Rv [1]): 0.20 µM (≈ 0.0571 µg/mL)
solubility kinetic at 4 h (physchem): 175 µM (≈ 49.9 µg/mL)
Kd (KasA): 0.0707 ± 0.0235 µM
reduction in lung bacterial burden (CFUs) versus start of treatment (M. tuberculosis H37Rv [9]; 100 or 200 mg/kg qd po, 4 weeks of treatment): ~ 2 log10

Cc1n[nH]c2ccc(NS(=O)(=O)CCCC(F)(F)F)cc12 [Compound 15, 4,4,4-trifluoro-N-(3-methyl-1H-indazol-5-yl)butane-1-sulfonamide]
CC50 (in vitro): > 160 µM
Kp at 5 h ([3]; female, CD-1, mouse, in vivo): 0.95
t > MIC ([3]; female, CD-1, mouse, in vivo): 5 h
AUC(0-t) [3, 18]: 28400 ng·h/mL
MIC H37Rv (M. tuberculosis H37Rv [1]): 0.25 µM (≈ 0.0803 µg/mL)

CCCCS(=O)(=O)Nc1ccc2[nH]c(C(N)=O)c(C)c2c1 [Compound 8, 5-(butylsulfonamido)-3-methyl-1H-indole-2-carboxamide]
CC50 (in vitro): > 160 µM
half-life ([2]; microsomes): 6.16 min
MIC H37Rv (M. tuberculosis H37Rv [1]): 3.1 µM (≈ 0.959 µg/mL)
solubility kinetic at 4 h (physchem): 45.5 µM (≈ 14.1 µg/mL)

NNC(=O)c1ccncc1 [INH, isoniazid, reference compound]
IC50 [11]: 0.5 µM
reduction in CFUs, controls (M. tuberculosis [15]; 4 weeks): ~ 2 log10
reduction in CFU, killing kinetics (M. tuberculosis [6]; 103 MIC, over 4 days, with rapid re-growth): > 3 log10

CCCCS(=O)(=O)Nc1ccc2[nH]cc(C)c2c1 [Compound 4, N-(3-methyl-1H-indol-5-yl)butane-1-sulfonamide]
CC50 (in vitro): > 190 µM
MIC H37Rv (M. tuberculosis H37Rv [1]): 1.6 µM (≈ 0.426 µg/mL)

CCCCCS(=O)(=O)Nc1ccc2[nH]c(C#N)c(C)c2c1 [Compound 10, N-(2-cyano-3-methyl-1H-indol-5-yl)pentane-1-sulfonamide]
plasma stability at 5 h [10]: ≥ 80%
IC50 [11]: 0.078 µM
CC50 (in vitro): 160 µM
IC50 at 20 min [12]: > 1 µM
half-life ([2]; mouse liver microsomes): 4.08 min
cidality in vitro (M. tuberculosis [6]): in vitro bactericidal
killing in combination with INH (M. tuberculosis [6]): culture sterilization
IC50 (cytochrome P450 2C19): 0.542 µM
plasma stability at 5 h [13]: ≥ 80%
MIC H37Rv (M. tuberculosis H37Rv [1]): 0.2 µM and 0.20 µM
MBC (M. tuberculosis [14]): 0.65 to 1.3 µM (≈ 0.199 to 0.397 µg/mL)
bacterial growth in the lungs (M. tuberculosis H37Rv [9]; 100 mg/kg): permissive of bacterial growth in the lungs
activity in the lungs (M. tuberculosis H37Rv [9]; 200-mg/kg dosing regimen): bacteriostatic activity in the lungs
bacterial load in the spleen (M. tuberculosis H37Rv [9]): did not reduce the bacterial load in the spleen

CCCCS(=O)(=O)Nc1ccc2[nH]nc(Cl)c2c1 [Compound 14, N-(3-chloro-1H-indazol-5-yl)butane-1-sulfonamide]
CC50 (in vitro): 22 µM
half-life ([2]; microsomes): 32.1 min
Kp at 5 h ([3]; female, CD-1, mouse, in vivo): 0.6
t > MIC ([3]; female, CD-1, mouse, in vivo): 5 h
AUC(0-t) [3, 18]: 51700 ng·h/mL
MIC H37Rv (M. tuberculosis H37Rv [1]): 0.39 µM (≈ 0.112 µg/mL)
solubility kinetic at 4 h (physchem): 443 µM (≈ 127 µg/mL)

O=S(=O)(CCCC(F)(F)F)Nc1ccc2[nH]nc(Cl)c2c1 [Compound 16, N-(3-chloro-1H-indazol-5-yl)-4,4,4-trifluorobutane-1-sulfonamide]
CC50 (in vitro): > 150 µM
Kp at 5 h ([3]; female, CD-1, mouse, in vivo): 1.2
t > MIC ([3]; female, CD-1, mouse, in vivo): 5 h
AUC(0-t) [3, 18]: 22000 ng·h/mL
MIC H37Rv (M. tuberculosis H37Rv [1]): 0.20 µM (≈ 0.0683 µg/mL)

CO[C@H]1/C=C/O[C@@]2(C)Oc3c(C)c(O)c4c(O)c(c(/C=N/N5CCN(C)CC5)c(O)c4c3C2=O)NC(=O)/C(C)=C\C=C\[C@H](C)[C@H](O)[C@@H](C)[C@@H](O)[C@@H](C)[C@H](OC(C)=O)[C@@H]1C [RIF, rifampicin, reference compound]
IC50 [11]: 0.3 µM
reduction in CFUs, controls (M. tuberculosis [15]; 4 weeks): ~ 2 log10

CCCCCS(=O)(=O)Nc1ccc2[nH]nc(Cl)c2c1 [Compound 17, N-(3-chloro-1H-indazol-5-yl)pentane-1-sulfonamide]
CC50 (in vitro): 170 µM
Kp at 5 h ([3]; female, CD-1, mouse, in vivo): 1.7
t > MIC ([3]; female, CD-1, mouse, in vivo): 5 h
AUC(0-t) [3, 18]: 34800 ng·h/mL
MIC H37Rv (M. tuberculosis H37Rv [1]): 0.39 µM (≈ 0.118 µg/mL)
